# Measured values from patent publication US20210299034A1, “A Topical Composition” (Conopco, Inc., d/b/a UNILEVER, priority 2018, published 2021).
# Test system: Human primary melanocytes
# Experiment: Melanin content assay in α-MSH-stimulated melanocytes
# Type: cell-based
# Conditions: for Melanin Content (%) Average ± SD: 72 h, untreated control (A) = 100
# Protocol: Human primary melanocytes were grown in melanocytes growth medium (MGM) with human melanocyte growth supplement. 500 μL/well (5×10^4 cells/well) of this solution was plated in a 24 wells plate and incubated in an incubator (Thermo Scientific, Model 3111) at 37° C. with 5% CO2 atmosphere.
# After 24 h of incubation, cell cultures were treated with the test actives (as outlined in table 1) dissolved in 20% ethanol. After 1 h of actives addition, 10 nM of α-MSH was added. The cells were again incubated for 72 h in an incubator. At the end of this incubation period, the culture medium was replaced with 120 μL/well of melanin content assay reagent (10% Dimethyl sulfoxide in 1 N sodium hydroxide) and incubated for 1 h at 60° C. in a shaker incubator. The supernatant was then transferred to a 384 well plate. The absorbance was measured at 405 nm with a microtiter plate reader (Genios Pro, Tecan M 1000).
# In the first set of experiments, human primary melanocytes were subjected to treatments as outlined in table 1 below.
Compound,"Melanin Content (%) Average ± SD (4-ER 50 μM, 10 nM α-MSH added 1 h after active, absorbance 405 nm)","Melanin content, comparison in words (10 nM MSH, example 1 vs black tea (example D), example B vs untreated control (example A))","Melanin Content (%) Average ± SD (MSH 10 nM alone, no test active)"
"CCc1ccc(O)cc1O [C, 4-ethyl resorcinol]",68 ± 12.7%,,
α-Melanocyte stimulating hormone [B],,over and above the control cells,121 ± 9.7%
